Drawing on publication PMC9822074, “Triterpenic Acid Amides as Potential Inhibitors of the SARS-CoV-2 Main Protease” (Molecules, 2022), this text covers IC50 for four molecules.

What is called IC50 is the point on the concentration scale where inhibition reaches its midpoint. Lower therefore signals higher potency.

In this assay the target is T1, SARS-CoV-2 main protease (Mpro, 3CLpro) (Severe acute respiratory syndrome coronavirus 2, UniProt P0DTD1).
T1 construct: gene rep
Description: FRET peptide cleavage assay. The assay is classed as biochemical. The text has this:
FRET peptide cleavage assay on SARS-CoV-2 main protease (Mpro, 3CLpro)

With `C=C(C)[C@@H]1CC[C@]2(C(=O)NCCOc3ccc(CCOc4ccc(C[C@H](OCC)C(=O)O)cc4)cc3)CC[C@]3(C)[C@H](CC[C@@H]4[C@@]5(C)CCC(=O)C(C)(C)[C@@H]5CC[C@]43C)[C@@H]12` [1a], half-maximal inhibition (IC50) required 100 ± 5 µM. Under `CCO[C@@H](Cc1ccc(OCCc2ccc(OCCNC(=O)[C@]34CC[C@@H](C(C)C)[C@@H]3[C@H]3CC[C@@H]5[C@@]6(C)CCC(=O)C(C)(C)[C@@H]6CC[C@@]5(C)[C@]3(C)CC4)cc2)cc1)C(=O)O` [1b] stands 100 ± 5 µM.

The molecule `CCO[C@@H](Cc1ccc(OCCc2ccc(OCCNC(=O)[C@]34CC[C@@H](C)[C@H](C)[C@H]3C3=CC[C@@H]5[C@@]6(C)CC[C@H](O)C(C)(C)[C@@H]6CC[C@@]5(C)[C@]3(C)CC4)cc2)cc1)C(=O)O` [1d] registered an IC50 of 100 ± 5 µM. As to `CCO[C@@H](Cc1ccc(OCCc2ccc(OCCNC(=O)[C@]34CC[C@@H](C)[C@H](C)[C@H]3C3=CC[C@@H]5[C@@]6(C)C[C@@H](O)[C@H](O)C(C)(C)[C@@H]6CC[C@@]5(C)[C@]3(C)CC4)cc2)cc1)C(=O)O` [1e], the IC50 amounted to 25 ± 3 µM.
